The nature of this data set: in vivo. Also on record: species or system BALB/c nude mice. The note with it: female, BALB/c nude, mouse, iv, total radioactivity. How it is done:
Biodistribution studies were performed in accordance with the ethical standards of the institution and approved by the Austrian Ministry of Science (BMWFW-66.011/0072-V/3b/2019). In vivo studies were carried out in 6–8-week-old female BALB/c nude mice xenografted with A431-CCK2R/A431-mock cells (Charles River, Sulzfeld, Germany; n = 4). For the induction of the tumor xenografts, 150 μL DMEM containing 2 × 10^6 A431-CCK2R and A431-mock cells were injected subcutaneously into the right and left flanks of each mouse. Tumors were allowed to grow for 10–14 days. [^68Ga]Ga-DOTA-MGS8 used in animal studies was prepared as described in the Supplementary Materials (page 2, Figures S1 and S2). To remove any hydrophilic impurities after radiolabeling, the solution was passed through a Sep-Pak® Light C18 cartridge (Waters, Milford, MA) preconditioned with ethanol and physiological saline. [^68Ga]Ga-DOTA-MGS8 was then eluted with 600 µL of a mixture of ethanol and PBS (2/1; v/v) followed by 1100 µL PBS. To this solution, 20 µL of 0.01 M bicarbonate was added for pH adjustment. The final injection solution was diluted with PBS containing 0.5% bovine serum albumin (BSA) to reach an injected radioactivity of ~200 kBq and a total injected peptide amount of ~30 pmol. [^68Ga]Ga-DOTA-MGS8 was administered in 150 µL via a lateral tail vein. The mice were euthanized 1 h p.i. by cervical spine dislocation. […] All organs, including blood and the remaining body, were weighed and their radioactivity was measured using the gamma-counter together with a standard. For the determination of radioactivity in the different tissues, a standard of 10 µL of the injection solution, as well as a 50 µL aliquot of a 1:10 and 1:50 dilution of the injection solution, were measured along with samples taken from the animals. […] The volume injected to each mouse was determined by calculating the difference in weight of the syringe before and after injection. Results were expressed as the percentage of injected activity per gram tissue (% IA/g).

Structures are written as SMILES. Where a SMILES comes first, the peptide text is derived from it. [ ]: non-standard residue; d: D form. The star is where a group is joined. DOTA = O=C(O)CN1CCN(CC(=O)O)CCN(CC(=O)*)CCN(CC(=O)O)CC1; 1Nal = N[C@@H](Cc1cccc2ccccc12)C(=O)O; NMeNle = CCCC[C@H](NC)C(=O)O

Turning to `CCCC[C@@H](C(=O)N[C@@H](CC(=O)O)C(=O)N[C@@H](Cc1cccc2ccccc12)C(N)=O)N(C)C(=O)[C@H](Cc1c[nH]c2ccccc12)NC(=O)CNC(=O)[C@H](Cc1ccc(O)cc1)NC(=O)[C@@H]1CCCN1C(=O)[C@@H](CCC(=O)O)NC(=O)CN1CCN(CC(=O)O)CCN(CC(=O)O)CCN(CC(=O)O)CC1` [[^68Ga]Ga-DOTA-MGS8, metal not drawn] ({DOTA}-[dE]PYGW[NMeNle]D[1Nal]-NH2), the tissue to tissue ratio at 1 h reads like this: (Tumor-to-blood ratio) 13.4 ± 1.77; (Tumor-to-kidney ratio) 4.41 ± 0.4; (Tumor-to-stomach ratio) 11 ± 2.05.

The values are drawn from PMC8949806, “Automated Synthesis of ^68Ga-Labeled DOTA-MGS8 and Preclinical Characterization of Cholecystokinin-2 Receptor Targeting” (Molecules, 2022).
